For test [1], the target named is T1, αVβ3 integrin (293-β3 cells) (Homo sapiens, UniProt P05106+P06756).
T1 construct: expressed in transfected cells; host or cells: 293 human embryonic kidney cells (293-β3)
In words: 293-β3 cell adhesion assay (adhesion to immobilized vitronectin). The test is classed as cell-based. The note with it: 200 uM Mn2+, read-out: 293-β3 (IC50 <10 μM). An excerpt:
While the β3 subunit of αVβ3 is only known to complex with αV or αIIb, the αV subunit complexes with multiple β subunits. The three αV integrins most homologous with αVβ3 are αVβ1, αVβ5 and αVβ6, with 43%, 56% and 47% amino acid identity in the β subunits, respectively. To evaluate the selectivity of compounds between the integrins αVβ3 and αVβ6, cell-based assays were established using the 293 human embryonic kidney cell line. 293 cells express αVβ1, but little to no detectable αVβ3 or αVβ6. cDNAs for β3 and β6 were transfected separately into 293 cells to generate 293-β3 and 293-β6 cells, respectively. High surface expression of αVβ3 and αVβ6 was confirmed by flow cytometry. Conditions were established for each cell line in which cell adhesion to immobilized human vitronectin was mediated by the appropriate integrin, as determined by a panel of integrin-specific, neutralizing monoclonal antibodies. Briefly, cells were incubated with inhibitor in the presence of 200 uM Mn^2+, allowed to adhere to immobilized vitronectin, washed, and adherent cells are detected endogenous alkaline phosphatase and para-nitrophenyl phosphate. An 8-point dose-response curve using either 10-fold or 3-fold dilutions of compound was evaluated by fitting a four-parameter logistic, nonlinear model (using SAS).

In test [2] the target is T2, αVβ6 (HT-29 human colon carcinoma cells) (Homo sapiens, UniProt P06756+P18564).
T2 construct: endogenous in cells; host or cells: HT-29 human colon carcinoma cells
As to the kind of experiment: HT-29 cell adhesion assay (adhesion to immobilized LAP). The test is classed as cell-based. To be noted: selectivity ratio: IC50 αVβ6 (HT-29) over IC50 β3. The method, then:
To evaluate compound potency for membrane-bound αVβ6 an additional cell-based adhesion assay was established using the HT-29 human colon carcinoma cell line. High surface expression of αVβ6 on HT-29 cells was confirmed by flow cytometry. Conditions were established in which cell adhesion to immobilized human latency associated peptide (LAP) was mediated by the αVβ6, as determined by a panel of integrin-specific, neutralizing monoclonal antibodies. Briefly, cells were incubated with inhibitor in the presence of 200 uM Mn^2+, allowed to adhere to immobilized LAP, washed, and adherent cells are detected by quantifying endogenous alkaline phosphatase using para-nitrophenyl phosphate. An 8-point dose-response curve using either 10-fold or 3-fold dilutions of compound was evaluated by fitting a four-parameter logistic, nonlinear model (using SAS). The compounds evaluated were relatively ineffective at inhibition of αVβ6-mediated cell adhesion. The selective antagonism of the αVβ3 integrin is viewed as desirable in this class of compounds, as αVβ6 may also play a role in normal physiological processes of tissue repair and cellular turnover that routinely occur in the skin and pulmonary tissues.

Test [3] has as its target T3, Human fibrinogen receptor (IIb/IIIa) (Homo sapiens, UniProt P05106+P08514).
T3 construct: Human fibrinogen receptor (IIb/IIIa) was purified from outdated platelets; from tissue; host or cells: outdated human platelets
In words: Purified IIb/IIIa receptor assay (solid phase receptor assay, SPRA). In kind it is binding. To be noted: selectivity ratio: IC50 αIIbβ3 (solid phase receptor assay) over IC50 β3. An excerpt: Human fibrinogen receptor (IIb/IIIa) was purified from outdated platelets. (Pytela, R., Pierschbacher, M. D., Argraves, S., Suzuki, S., and Rouslahti, E. “Arginine-Glycine-Aspartic acid adhesion receptors”, Methods in Enzymology 144(1987):475-489.) Human vitronectin was purified from fresh frozen plasma as described in Yatohgo, T., Izumi, M., Kashiwagi, H., and Hayashi, M., “Novel purification of vitronectin from human plasma by heparin affinity chromatography,” Cell Structure and Function 13(1988):281-292. Biotinylated human vitronectin was prepared by coupling NHS-biotin from Pierce Chemical Company (Rockford, IL) to purified vitronectin as previously described. (Charo, I. F., Nannizzi, L., Phillips, D. R., Hsu, M. A., Scarborough, R. M., “Inhibition of fibrinogen binding to GP IIb/IIIa by a GP IIIa peptide”, J. Biol. Chem. 266(3)(1991): 1415-1421.) Assay buffer, OPD substrate tablets, and RIA grade BSA were obtained from Sigma (St. Louis, Mo.). Anti-biotin antibody was obtained from Sigma (St. Louis, Mo.). Nalge Nunc-Immuno microtiter plates were obtained from (Rochester, N.Y.). ADP reagent was obtained from Sigma (St. Louis, Mo.).
This assay is essentially the same reported in Niiya, K., Hodson, E., Bader, R., Byers-Ward, V. Koziol, J. A., Plow, E. F. and Ruggeri, Z. M., “Increased surface expression of the membrane glycoprotein IIb/IIIa complex induced by platelet activation: Relationships to the binding of fibrinogen and platelet aggregation”, Blood 70(1987):475-483. The purified human fibrinogen receptor (IIb/IIIa) was diluted from stock solutions to 1.0 μg/mL in Tris-buffered saline containing 1.0 mM Ca^++, Mg^++, and Mn^++, pH 7.4 (TBS^+++). The diluted receptor was immediately transferred to Nalge Nunc-Immuno microtiter plates at 100 μL/well (100 ng receptor/well). The plates were sealed and incubated overnight at 4° C. to allow the receptors to bind to the wells. All remaining steps were at room temperature. The assay plates were emptied and 200 μL of 1% RIA grade BSA in TBS^+++ (TBS^+++/BSA) were added to block exposed plastic surfaces. Following a 2 hour incubation, the assay plates were washed with TBS^+++ using a 96 well plate washer. Logarithmic serial dilution of the test compound and controls were made starting at a stock concentration of […] and using 2 nM biotinylated vitronectin in TBS^+++/BSA as the diluent. This premixing of labeled ligand with test (or control) ligand, and subsequent transfer of 50 μL aliquots to the assay plate was carried out with a CETUS Propette robot; the final concentration of the labeled ligand was 1 nM and the highest concentration of test compound was 1.0×10^−4 M. The competition occurred for two hours after which all wells were washed with a plate washer as before. Affinity purified horseradish peroxidase labeled goat anti-biotin antibody was diluted 1:2000 in TBS^+++/BSA and 125 μL were added to each well. After 45 minutes, the plates were washed and incubated with […] substrate in 100 mM/L citrate buffer, pH 5.0. The plate was read with a microtiter plate reader at a wavelength of 450 nm and when the maximum-binding control wells reached an absorbance of about 1.0, the final A450 were recorded for analysis. The data were analyzed using a macro written for use with the EXCELJ spreadsheet program. The mean, standard deviation, and %CV were determined for duplicate concentrations. The mean A450 values were normalized to the mean of four maximum-binding controls (no competitor added)(B-MAX). The normalized values were subjected to a four parameter curve fit algorithm, [Robard et al., Int.

T3 sequence (P08514 32-887 limits assumed): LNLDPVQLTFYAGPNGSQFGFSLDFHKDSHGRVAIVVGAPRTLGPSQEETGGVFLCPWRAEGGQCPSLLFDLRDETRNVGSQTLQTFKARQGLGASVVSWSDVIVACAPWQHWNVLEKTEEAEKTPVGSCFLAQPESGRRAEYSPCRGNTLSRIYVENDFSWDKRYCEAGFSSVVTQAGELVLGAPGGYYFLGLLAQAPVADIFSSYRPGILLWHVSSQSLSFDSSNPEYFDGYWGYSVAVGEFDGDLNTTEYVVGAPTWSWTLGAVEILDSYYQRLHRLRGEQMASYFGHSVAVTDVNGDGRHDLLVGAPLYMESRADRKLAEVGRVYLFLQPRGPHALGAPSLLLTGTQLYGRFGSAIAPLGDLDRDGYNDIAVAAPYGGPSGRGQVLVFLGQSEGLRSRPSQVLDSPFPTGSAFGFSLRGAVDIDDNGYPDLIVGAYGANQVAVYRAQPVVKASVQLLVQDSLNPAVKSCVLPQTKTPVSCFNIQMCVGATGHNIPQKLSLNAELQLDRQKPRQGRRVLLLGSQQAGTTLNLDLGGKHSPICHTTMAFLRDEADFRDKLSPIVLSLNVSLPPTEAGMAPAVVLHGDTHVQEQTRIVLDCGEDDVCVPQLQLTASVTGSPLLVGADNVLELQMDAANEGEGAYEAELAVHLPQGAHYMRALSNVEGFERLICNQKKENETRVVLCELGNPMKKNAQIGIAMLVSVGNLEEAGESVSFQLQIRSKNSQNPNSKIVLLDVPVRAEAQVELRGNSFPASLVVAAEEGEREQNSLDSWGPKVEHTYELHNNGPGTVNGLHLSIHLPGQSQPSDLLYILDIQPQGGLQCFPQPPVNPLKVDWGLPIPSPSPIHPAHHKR
T3 sequence (P08514 891-1039 partner limits assumed): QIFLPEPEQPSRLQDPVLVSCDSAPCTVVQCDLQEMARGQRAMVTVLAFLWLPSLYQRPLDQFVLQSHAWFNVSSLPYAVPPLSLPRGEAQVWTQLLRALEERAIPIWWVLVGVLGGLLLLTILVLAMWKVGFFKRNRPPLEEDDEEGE
T3 sequence (P05106 27-788): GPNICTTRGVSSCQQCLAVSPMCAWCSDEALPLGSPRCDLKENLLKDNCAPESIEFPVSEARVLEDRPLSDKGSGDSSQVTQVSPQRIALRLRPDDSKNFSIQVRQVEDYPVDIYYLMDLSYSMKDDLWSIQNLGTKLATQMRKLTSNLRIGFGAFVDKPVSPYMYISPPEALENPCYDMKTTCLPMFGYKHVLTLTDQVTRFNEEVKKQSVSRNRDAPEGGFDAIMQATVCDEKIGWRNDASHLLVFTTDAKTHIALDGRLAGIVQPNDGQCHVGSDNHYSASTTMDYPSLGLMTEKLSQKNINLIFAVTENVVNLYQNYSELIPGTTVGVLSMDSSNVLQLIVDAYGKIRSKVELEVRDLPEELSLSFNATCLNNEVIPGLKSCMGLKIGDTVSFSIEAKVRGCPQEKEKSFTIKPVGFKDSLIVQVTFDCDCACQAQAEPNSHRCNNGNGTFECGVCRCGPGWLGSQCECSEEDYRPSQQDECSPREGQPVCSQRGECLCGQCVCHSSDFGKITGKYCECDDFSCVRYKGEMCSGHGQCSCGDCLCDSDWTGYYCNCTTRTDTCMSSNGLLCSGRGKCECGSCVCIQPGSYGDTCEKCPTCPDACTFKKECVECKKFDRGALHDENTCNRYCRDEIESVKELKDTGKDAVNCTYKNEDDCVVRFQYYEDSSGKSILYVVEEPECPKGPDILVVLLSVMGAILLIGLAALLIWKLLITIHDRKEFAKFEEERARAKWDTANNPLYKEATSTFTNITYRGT
T2 sequence (P06756 31-889 limits assumed): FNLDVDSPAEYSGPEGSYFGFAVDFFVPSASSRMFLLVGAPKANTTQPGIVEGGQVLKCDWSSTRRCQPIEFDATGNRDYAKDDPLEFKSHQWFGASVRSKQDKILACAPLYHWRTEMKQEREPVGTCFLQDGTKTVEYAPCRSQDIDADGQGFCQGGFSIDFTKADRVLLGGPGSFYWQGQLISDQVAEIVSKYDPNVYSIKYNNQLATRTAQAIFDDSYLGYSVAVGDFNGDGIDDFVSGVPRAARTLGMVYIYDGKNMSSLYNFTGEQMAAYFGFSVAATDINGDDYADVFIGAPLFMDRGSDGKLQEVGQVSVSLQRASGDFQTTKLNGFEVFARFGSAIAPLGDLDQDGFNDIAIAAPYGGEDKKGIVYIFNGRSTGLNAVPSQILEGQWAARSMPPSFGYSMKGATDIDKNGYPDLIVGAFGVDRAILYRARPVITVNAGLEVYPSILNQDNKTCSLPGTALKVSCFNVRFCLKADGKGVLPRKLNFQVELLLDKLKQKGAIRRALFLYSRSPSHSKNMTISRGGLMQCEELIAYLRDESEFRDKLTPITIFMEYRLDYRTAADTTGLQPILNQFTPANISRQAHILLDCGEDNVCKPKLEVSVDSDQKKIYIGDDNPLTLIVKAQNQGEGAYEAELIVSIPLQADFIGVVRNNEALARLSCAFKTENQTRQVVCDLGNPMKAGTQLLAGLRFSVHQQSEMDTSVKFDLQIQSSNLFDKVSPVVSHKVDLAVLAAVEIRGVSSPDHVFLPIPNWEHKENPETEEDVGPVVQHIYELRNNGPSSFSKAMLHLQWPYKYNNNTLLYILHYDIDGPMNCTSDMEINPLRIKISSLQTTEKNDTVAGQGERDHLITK
T2 sequence (P06756 891-1048 partner limits assumed): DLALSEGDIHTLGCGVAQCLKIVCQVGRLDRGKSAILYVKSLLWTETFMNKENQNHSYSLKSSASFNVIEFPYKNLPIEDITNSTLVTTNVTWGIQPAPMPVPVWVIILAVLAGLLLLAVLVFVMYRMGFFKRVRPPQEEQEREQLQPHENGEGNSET
T2 sequence (P18564 22-788): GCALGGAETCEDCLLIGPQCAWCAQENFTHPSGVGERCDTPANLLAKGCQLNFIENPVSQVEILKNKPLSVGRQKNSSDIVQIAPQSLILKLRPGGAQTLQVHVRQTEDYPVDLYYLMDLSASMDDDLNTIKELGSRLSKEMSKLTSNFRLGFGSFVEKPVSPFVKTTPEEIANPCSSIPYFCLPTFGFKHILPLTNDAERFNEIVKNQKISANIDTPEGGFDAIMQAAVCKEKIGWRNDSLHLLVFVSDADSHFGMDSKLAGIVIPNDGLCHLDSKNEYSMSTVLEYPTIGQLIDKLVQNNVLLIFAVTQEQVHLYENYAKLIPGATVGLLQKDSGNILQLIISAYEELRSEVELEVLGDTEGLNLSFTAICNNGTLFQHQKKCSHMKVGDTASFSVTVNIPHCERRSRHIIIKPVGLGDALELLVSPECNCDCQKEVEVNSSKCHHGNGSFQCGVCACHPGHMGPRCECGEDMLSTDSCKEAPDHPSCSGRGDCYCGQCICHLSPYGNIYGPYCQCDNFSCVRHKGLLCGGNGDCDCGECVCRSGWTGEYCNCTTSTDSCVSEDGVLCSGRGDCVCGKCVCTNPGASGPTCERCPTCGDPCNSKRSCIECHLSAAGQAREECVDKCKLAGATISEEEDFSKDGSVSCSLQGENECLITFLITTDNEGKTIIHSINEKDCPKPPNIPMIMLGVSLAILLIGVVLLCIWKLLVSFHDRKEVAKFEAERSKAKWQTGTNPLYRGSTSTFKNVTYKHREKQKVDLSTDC
T1 sequence (P06756 31-889 limits assumed): as the sequence (P06756 31-889 limits assumed) above
T1 sequence (P06756 891-1048 partner limits assumed): as the sequence (P06756 891-1048 partner limits assumed) above
T1 sequence (P05106 27-788): as the sequence (P05106 27-788) above

Consider `CCCC(C)(CC(=O)O)Cc1nc(CCCCNc2ccccn2)no1` (stereo not drawn) [Example 38, 3-methyl-3-({3-[4-(pyridin-2-ylamino)butyl]-1,2,4-oxadiazol-5-yl}methyl)-hexanoic acid], for which the IC50 in test [1] was less than 10 µM. Moreover, the “HT-29 β-6 Selectivity* (β6/β3)” value in test [2] is recorded as “+++ (Selectivity Ratio >100 +++)”. For the same compound, the “SPRA AIIbB3 Selectivity* IIbIIIa/β3” value in test [3] is on record as “+++ (Selectivity Ratio >100 +++)”.

Turning to `CC(C)C(C)(CC(=O)O)Cc1nc(CCCCNc2ccccn2)no1` (stereo not drawn) [Example 39, 3,4-dimethyl-3-({3-[4-(pyridin-2-ylamino)butyl]-1,2,4-oxadiazol-5-yl}methyl)-pentanoic acid], in test [1], the 50% inhibitory concentration (IC50) is less than 10 µM. For the same compound, the “HT-29 β-6 Selectivity* (β6/β3)” value in test [2] is reported as “++ (Selectivity Ratio of 10-100 ++)”. Besides, the “SPRA AIIbB3 Selectivity* IIbIIIa/β3” value in test [3] was “++ (Selectivity Ratio of 10-100 ++)”.

Take `CCC(CC)(CC(=O)O)Cc1nc(CCCCNc2ccccn2)no1` [Example 40, 3-ethyl-3-({3-[4-(pyridin-2-ylamino)butyl]-1,2,4-oxadiazol-5-yl}methyl)-pentanoic acid]: the half-maximal inhibitory concentration (IC50) in test [1] was less than 10 µM. For the same compound, in test [2], the “HT-29 β-6 Selectivity* (β6/β3)” value is on record as “++ (Selectivity Ratio of 10-100 ++)”. Besides, the “SPRA AIIbB3 Selectivity* IIbIIIa/β3” value in test [3] was “+++ (Selectivity Ratio >100 +++)”.

Consider `O=C(O)CCCc1nc(CCCCNc2ccccn2)no1` [Example 41, 4-{3-[4-(pyridin-2-ylamino)butyl]-1,2,4-oxadiazol-5-yl}butanoic acid], for which the IC50 in test [1] was less than 10 µM. Also, the “HT-29 β-6 Selectivity* (β6/β3)” value in test [2] is given as “+++ (Selectivity Ratio >100 +++)”. In test [3], the “SPRA AIIbB3 Selectivity* IIbIIIa/β3” value is given as “++ (Selectivity Ratio of 10-100 ++)”.

Take `CC(CC(=O)O)(Cc1nc(CCCCNc2ccccn2)no1)c1ccccc1` (stereo not drawn) [Example 42, 3-methyl-3-phenyl-4-{3-[4-(pyridin-2-ylamino)butyl]-1,2,4-oxadiazol-5-yl}-butanoic acid]: in test [1], the IC50 was less than 10 µM. Further, the “HT-29 β-6 Selectivity* (β6/β3)” value in test [2] is reported as “+++ (Selectivity Ratio >100 +++)”. Moreover, the “SPRA AIIbB3 Selectivity* IIbIIIa/β3” value in test [3] is on record as “+++ (Selectivity Ratio >100 +++)”.

In the case of `CCC(C)(CC(=O)O)Cc1nc(CCCc2ccc3c(n2)NCCC3)no1` (stereo not drawn) [Example 43, 3-Methyl-3-{3-[3-(5,6,7,8-tetrahydro-[1,8]naphthyridin-2-yl)-propyl]-[1,2,4]oxadiazol-5-ylmethyl}-pentanoic acid], the IC50 in test [1] is less than 10 µM. The “HT-29 β-6 Selectivity* (β6/β3)” value in test [2] is “+++ (Selectivity Ratio >100 +++)”. The “SPRA AIIbB3 Selectivity* IIbIIIa/β3” value in test [3] is “+++ (Selectivity Ratio >100 +++)”.

Take `CCCC(C)(CC(=O)O)Cc1nc(CCCc2ccc3c(n2)NCCC3)no1` (stereo not drawn) [Example 44, 3-Methyl-3-{3-[3-(5,6,7,8-tetrahydro-[1,8]naphthyridin-2-yl)-propyl]-[1,2,4]oxadiazol-5-ylmethyl}-hexanoic acid]: the 50% inhibitory concentration (IC50) in test [1] was less than 10 µM. For the same compound, the “HT-29 β-6 Selectivity* (β6/β3)” value in test [2] is recorded as “+++ (Selectivity Ratio >100 +++)”. In addition, the “SPRA AIIbB3 Selectivity* IIbIIIa/β3” value in test [3] is on record as “+++ (Selectivity Ratio >100 +++)”.

Take `CCC(CC)(CC(=O)O)Cc1nc(CCCc2ccc3c(n2)NCCC3)no1` [Example 45, 3-Ethyl-3-{3-[3-(5,6,7,8-tetrahydro-[1,8]naphthyridin-2-yl)-propyl]-[1,2,4]oxadiazol-5-ylmethyl}-pentanoic acid]: the IC50 in test [1] was less than 10 µM. The “HT-29 β-6 Selectivity* (β6/β3)” value in test [2] is listed as “++ (Selectivity Ratio of 10-100 ++)”. Moreover, in test [3], the “SPRA AIIbB3 Selectivity* IIbIIIa/β3” value is recorded as “++ (Selectivity Ratio of 10-100 ++)”.

As to `CC(C)C(C)(CC(=O)O)Cc1nc(CCCc2ccc3c(n2)NCCC3)no1` (stereo not drawn) [Example 46, 3,4-Dimethyl-3-{3-[3-(5,6,7,8-tetrahydro-[1,8]naphthyridin-2-yl)-propyl]-[1,2,4]oxadiazol-5-ylmethyl}-pentanoic acid], the half-inhibitory concentration (IC50) in test [1] is less than 10 µM. Besides, the “HT-29 β-6 Selectivity* (β6/β3)” value in test [2] is “+++ (Selectivity Ratio >100 +++)”. The “SPRA AIIbB3 Selectivity* IIbIIIa/β3” value in test [3] is “+++ (Selectivity Ratio >100 +++)”.

Regarding `CC(CC(=O)O)(Cc1nc(CCCc2ccc3c(n2)NCCC3)no1)c1ccccc1` (stereo not drawn) [Example 47, 3-Methyl-3-phenyl-4-{3-[3-(5,6,7,8-tetrahydro-[1,8]naphthyridin-2-yl)-propyl]-[1,2,4]oxadiazol-5-yl}-butyric acid], the IC50 in test [1] was less than 10 µM. The “HT-29 β-6 Selectivity* (β6/β3)” value in test [2] is “+++ (Selectivity Ratio >100 +++)”. Also, the “SPRA AIIbB3 Selectivity* IIbIIIa/β3” value in test [3] is “+++ (Selectivity Ratio >100 +++)”.

As for `O=C(O)CCCc1nc(CCCc2ccc3c(n2)NCCC3)no1` [Example 50, 4-{3-[3-(5,6,7,8-Tetrahydro-[1,8]naphthyridin-2-yl)-propyl]-[1,2,4]oxadiazol-5-yl}-butyric acid], the IC50 in test [1] was less than 10 µM. Besides, the “HT-29 β-6 Selectivity* (β6/β3)” value in test [2] is “+++ (Selectivity Ratio >100 +++)”. In test [3], the “SPRA AIIbB3 Selectivity* IIbIIIa/β3” value is recorded as “+++ (Selectivity Ratio >100 +++)”.

Turning to `CC(CC(=O)O)(Cc1nc(CCCc2ccc3c(n2)NCCC3)no1)c1cccnc1` (stereo not drawn) [Example 51, 3-Methyl-3-pyridin-3-yl-4-{3-[3-(5,6,7,8-tetrahydro-[1,8]naphthyridin-2-yl)-propyl]-[1,2,4]oxadiazol-5-yl}-butyric acid], the IC50 in test [1] was less than 10 µM. In addition, the “HT-29 β-6 Selectivity* (β6/β3)” value in test [2] is “+++ (Selectivity Ratio >100 +++)”. Besides, the “SPRA AIIbB3 Selectivity* IIbIIIa/β3” value in test [3] was “+++ (Selectivity Ratio >100 +++)”.

Regarding `CC(CC(=O)O)(Cc1nc(CCCCNc2ccccn2)no1)c1cccnc1` (stereo not drawn) [Example 57, 3-Methyl-3-pyridin-3-yl-4-{3-[4-(pyridin-2-ylamino)-butyl]-[1,2,4]oxadiazol-5-yl}-butyric acid], in test [1], the IC50 is less than 10 µM. Further, the “HT-29 β-6 Selectivity* (β6/β3)” value in test [2] is “+++ (Selectivity Ratio >100 +++)”. In test [3], the “SPRA AIIbB3 Selectivity* IIbIIIa/β3” value is given as “+++ (Selectivity Ratio >100 +++)”.

For orientation: IC50 means the concentration needed to halve the response being measured.

Source of the values: US6933304B2, “Heteroarylalkanoic acids as integrin receptor antagonists” (Pharmacia Corporation, priority 2000, dated 2005).
